In US20260217651A1 (priority 2022, published 2026):

Test system: SD rats
Experiment: animal or person
Format: in vivo, rat
Conditions: Rattus norvegicus, iv, read-out: Minimal effective anesthetic dose(mg/kg)

**Q.** With `CCCC(=O)N(c1ccccc1)C1CCN(c2cc(C(C)C)c(O)c(C(C)C)c2)CC1` [Cpd-13] as the compound, how does the minimal effective dose read?
**A.** The minimal effective dose was 5 to 10 mg/kg.

**Q.** `CCOC(=O)C1(c2ccccc2)CCN(c2cc(C(C)C)c(O)c(C(C)C)c2)CC1` [Cpd-21] was tested. Which minimal effective dose did it give?
**A.** The minimal effective dose was less than 5 mg/kg.

**Q.** `CCOC(=O)C1(c2cccs2)CCN(c2cc(C(C)C)c(O)c(C(C)C)c2)CC1` [Cpd-24] was tested. Which minimal effective dose did it give?
**A.** The minimal effective dose was 5 to 10 mg/kg.

**Q.** How did the minimal effective dose turn out when `CCOC(=O)C1(c2ccccc2)CCN(c2cc(C(C)C)c(O)c([C@H](C)C3CC3)c2)CC1` [Cpd-25] was run?
**A.** The minimal effective dose was 5 to 10 mg/kg.

**Q.** For `CC(C)OC(=O)C1(c2ccccc2)CCN(c2cc(C(C)C)c(O)c(C(C)C)c2)CC1` [Cpd-26], which minimal effective dose is on record?
**A.** The minimal effective dose was 5 to 10 mg/kg.

**Q.** Which minimal effective dose does the source give for `CCOC(=O)C1(c2ccc(Cl)cc2Cl)CCN(c2cc(C(C)C)c(O)c(C(C)C)c2)CC1` [Cpd-28] here?
**A.** Its minimal effective dose is 20 to 40 mg/kg.

**Q.** With `CCOC(=O)C1(c2cccc(OC)c2)CCN(c2cc(C(C)C)c(O)c(C(C)C)c2)CC1` [Cpd-39] as the compound, how does the minimal effective dose read?
**A.** The minimal effective dose was 10 to 20 mg/kg.

**Q.** Which minimal effective dose does the source give for `COC(=O)N(c1ccccc1)N1CCN(c2cc(C(C)C)c(O)c(C(C)C)c2)CC1` [Cpd-45] here?
**A.** The minimal effective dose was 5 to 10 mg/kg.

**Q.** How did the minimal effective dose turn out when `CCC(=O)N(c1ccccc1)N1CCN(c2cc(C(C)C)c(O)c(C(C)C)c2)CC1` [Cpd-46] was run?
**A.** Its minimal effective dose is 5 to 10 mg/kg.

**Q.** Which minimal effective dose does the source give for `CCOC(=O)N(c1ccccc1)N1CCN(c2cc(C(C)C)c(O)c(C(C)C3CC3)c2)CC1` (centres unmarked) [Cpd-53] here?
**A.** Its minimal effective dose is less than 5 mg/kg.

**Q.** For `CCOC(=O)N(c1cccc(Cl)c1)N1CCN(c2cc(C(C)C)c(O)c(C(C)C)c2)CC1` [Cpd-61], which minimal effective dose is on record?
**A.** The minimal effective dose was 10 to 20 mg/kg.

**Q.** How did the minimal effective dose turn out when `CCOC(=O)N(c1cccc(OC)c1)N1CCN(c2cc(C(C)C)c(O)c(C(C)C)c2)CC1` [Cpd-63] was run?
**A.** Its minimal effective dose is 10 to 20 mg/kg.

**Q.** `CCOC(=O)N(c1ccc(Cl)cc1)N1CCN(c2cc(C(C)C)c(O)c(C(C)C)c2)CC1` [Cpd-65] was tested. Which minimal effective dose did it give?
**A.** The minimal effective dose was 10 to 20 mg/kg.

Same assay, conditions: rat, in vivo, iv

**Q.** Which “Onset time” value does the source give for `CCCC(=O)N(c1ccccc1)C1CCN(c2cc(C(C)C)c(O)c(C(C)C)c2)CC1` [Cpd-13] here?
**A.** Its value is 0.35 min.

**Q.** And the “Righting Reflex Duration” value?
**A.** Its value is 20.27 min.

**Q.** And the “Sedation Duration” value?
**A.** Its value is 41.57 min.

**Q.** Which results are given for `CCOC(=O)C1(c2ccccc2)CCN(c2cc(C(C)C)c(O)c(C(C)C)c2)CC1` [Cpd-21]?
**A.** Onset time: 1.35 min; Righting Reflex Duration: 1.32 min; Sedation Duration: 20.10 min

**Q.** Which results are given for `CCOC(=O)C1(c2cccs2)CCN(c2cc(C(C)C)c(O)c(C(C)C)c2)CC1` [Cpd-24]?
**A.** Onset time: 0.85 min; Righting Reflex Duration: 11.60 min; Sedation Duration: 21.70 min

**Q.** How did the “Onset time” value turn out when `CCOC(=O)C1(c2ccccc2)CCN(c2cc(C(C)C)c(O)c([C@H](C)C3CC3)c2)CC1` [Cpd-25] was run?
**A.** Its value is 1.28 to 2.95 min.

**Q.** And the “Righting Reflex Duration” value?
**A.** Its value is 3.45 to 6.43 min.

**Q.** And the “Sedation Duration” value?
**A.** The value was 17.48 to 23.03 min.

**Q.** What does the source list for `CC(C)OC(=O)C1(c2ccccc2)CCN(c2cc(C(C)C)c(O)c(C(C)C)c2)CC1` [Cpd-26]?
**A.** Onset time: 0.98 to 1.77 min; Righting Reflex Duration: 12.33 to 28.05 min; Sedation Duration: 26.52 to 182.97 min

**Q.** Which results are given for `CCOC(=O)C1(c2ccc(Cl)cc2Cl)CCN(c2cc(C(C)C)c(O)c(C(C)C)c2)CC1` [Cpd-28]?
**A.** Onset time: 0.73 to 1.02 min; Righting Reflex Duration: 2.97 to 12.00 min; Sedation Duration: 31.98 to 218.72 min

**Q.** With `CCOC(=O)C1(c2cccc(OC)c2)CCN(c2cc(C(C)C)c(O)c(C(C)C)c2)CC1` [Cpd-39] as the compound, how does the “Onset time” value read?
**A.** The value was 0.73 to 1.07 min.

**Q.** And the “Righting Reflex Duration” value?
**A.** The value was 7.45 to 24.00 min.

**Q.** And the “Sedation Duration” value?
**A.** Its value is 34.33 to 39.48 min.

**Q.** How did the “Onset time” value turn out when `COC(=O)N(c1ccccc1)N1CCN(c2cc(C(C)C)c(O)c(C(C)C)c2)CC1` [Cpd-45] was run?
**A.** Its value is 0.38 to 0.58 min.

**Q.** What about the “Righting Reflex Duration” value of the same compound?
**A.** Its value is 9.45 to 21.03 min.

**Q.** And the “Sedation Duration” value?
**A.** Its value is 21.22 to 30.92 min.

**Q.** `CCC(=O)N(c1ccccc1)N1CCN(c2cc(C(C)C)c(O)c(C(C)C)c2)CC1` [Cpd-46] was tested. Which “Onset time” value did it give?
**A.** Its value is 1.58 min.

**Q.** What about the “Righting Reflex Duration” value of the same compound?
**A.** The value was 2.17 min.

**Q.** What about the “Sedation Duration” value of the same compound?
**A.** Its value is 12.95 min.

**Q.** Which results are given for `CCOC(=O)N(c1ccccc1)N1CCN(c2cc(C(C)C)c(O)c(C(C)C3CC3)c2)CC1` (centres unmarked) [Cpd-53]?
**A.** Onset time: 0.47 to 1.27 min; Righting Reflex Duration: 2.00 to 37.20 min; Sedation Duration: 27.75 to 167.40 min

**Q.** With `CCOC(=O)N(c1cccc(Cl)c1)N1CCN(c2cc(C(C)C)c(O)c(C(C)C)c2)CC1` [Cpd-61] as the compound, how does the “Onset time” value read?
**A.** The value was 0.55 to 1.25 min.

**Q.** What about the “Righting Reflex Duration” value of the same compound?
**A.** Its value is 4.15 to 41.88 min.

**Q.** And the “Sedation Duration” value?
**A.** The value was 89.98 to 162.23 min.

**Q.** What does the source list for `CCOC(=O)N(c1cccc(OC)c1)N1CCN(c2cc(C(C)C)c(O)c(C(C)C)c2)CC1` [Cpd-63]?
**A.** Onset time: 0.18 to 0.50 min; Righting Reflex Duration: 6.92 to 33.82 min; Sedation Duration: 50.33 to 193.58 min

**Q.** For `CCOC(=O)N(c1ccc(Cl)cc1)N1CCN(c2cc(C(C)C)c(O)c(C(C)C)c2)CC1` [Cpd-65], which “Onset time” value is on record?
**A.** Its value is 0.92 to 1.17 min.

**Q.** What about the “Righting Reflex Duration” value of the same compound?
**A.** The value was 11.30 to 16.67 min.

**Q.** And the “Sedation Duration” value?
**A.** Its value is 101.42 to 123.97 min.

Test system: SD rats
Experiment: animal or person
Format: in vivo
Conditions: Rattus norvegicus, iv, read-out: Minimal effective analgesic dose(mg/kg)

**Q.** Which minimal effective dose does the source give for `CCCC(=O)N(c1ccccc1)C1CCN(c2cc(C(C)C)c(O)c(C(C)C)c2)CC1` [Cpd-13] here?
**A.** Its minimal effective dose is 5 to 10 mg/kg.

**Q.** How did the minimal effective dose turn out when `CCOC(=O)C1(c2ccccc2)CCN(c2cc(C(C)C)c(O)c(C(C)C)c2)CC1` [Cpd-21] was run?
**A.** The minimal effective dose was less than 5 mg/kg.

**Q.** For `CCOC(=O)C1(c2cccs2)CCN(c2cc(C(C)C)c(O)c(C(C)C)c2)CC1` [Cpd-24], which minimal effective dose is on record?
**A.** Its minimal effective dose is 5 to 10 mg/kg.

**Q.** With `CCOC(=O)C1(c2ccccc2)CCN(c2cc(C(C)C)c(O)c([C@H](C)C3CC3)c2)CC1` [Cpd-25] as the compound, how does the minimal effective dose read?
**A.** Its minimal effective dose is 5 to 10 mg/kg.

**Q.** With `CC(C)OC(=O)C1(c2ccccc2)CCN(c2cc(C(C)C)c(O)c(C(C)C)c2)CC1` [Cpd-26] as the compound, how does the minimal effective dose read?
**A.** Its minimal effective dose is 5 to 10 mg/kg.

**Q.** How did the minimal effective dose turn out when `CCOC(=O)C1(c2ccc(Cl)cc2Cl)CCN(c2cc(C(C)C)c(O)c(C(C)C)c2)CC1` [Cpd-28] was run?
**A.** The minimal effective dose was 20 to 40 mg/kg.

**Q.** With `CCOC(=O)C1(c2cccc(OC)c2)CCN(c2cc(C(C)C)c(O)c(C(C)C)c2)CC1` [Cpd-39] as the compound, how does the minimal effective dose read?
**A.** The minimal effective dose was 10 to 20 mg/kg.

**Q.** How did the minimal effective dose turn out when `COC(=O)N(c1ccccc1)N1CCN(c2cc(C(C)C)c(O)c(C(C)C)c2)CC1` [Cpd-45] was run?
**A.** The minimal effective dose was 5 to 10 mg/kg.

**Q.** How did the minimal effective dose turn out when `CCC(=O)N(c1ccccc1)N1CCN(c2cc(C(C)C)c(O)c(C(C)C)c2)CC1` [Cpd-46] was run?
**A.** The minimal effective dose was 5 to 10 mg/kg.

**Q.** Which minimal effective dose does the source give for `CCOC(=O)N(c1ccccc1)N1CCN(c2cc(C(C)C)c(O)c(C(C)C3CC3)c2)CC1` (centres unmarked) [Cpd-53] here?
**A.** The minimal effective dose was 5 to 10 mg/kg.

**Q.** For `CCOC(=O)N(c1cccc(Cl)c1)N1CCN(c2cc(C(C)C)c(O)c(C(C)C)c2)CC1` [Cpd-61], which minimal effective dose is on record?
**A.** The minimal effective dose was 10 to 20 mg/kg.

**Q.** `CCOC(=O)N(c1cccc(OC)c1)N1CCN(c2cc(C(C)C)c(O)c(C(C)C)c2)CC1` [Cpd-63] was tested. Which minimal effective dose did it give?
**A.** Its minimal effective dose is 20 to 40 mg/kg.

**Q.** How did the minimal effective dose turn out when `CCOC(=O)N(c1ccc(Cl)cc1)N1CCN(c2cc(C(C)C)c(O)c(C(C)C)c2)CC1` [Cpd-65] was run?
**A.** The minimal effective dose was 10 to 20 mg/kg.
